The text below walks through data of US9765037B2, “Compositions and methods for treating toxoplasmosis, cryptosporidiosis, and other apicomplexan protozoan related diseases” (University of Washington Through its Center for …, priority 2010, dated 2017).

In series [1] the target is SrcKD (Homo sapiens (Human), UniProt P12931). The experiment in a line: Tyrosine kinase IC50, SrcKD. Type of series: biochemical. Conditions: Table 9.
For series [2], the target named is AblKD (Homo sapiens (Human), UniProt P00519). Briefly: Tyrosine kinase IC50, AblKD. The following applies: Table 9. Type of series: biochemical.
Series [3] deals with PfCDPK1 (Plasmodium falciparum (isolate 3D7), UniProt P62344). The experiment in a line: biochemical.
The subject of series [4] is colorectal carcinoma (HC 2998). The experiment in a line: Growth inhibition of human cell line HC 2998.
A short description of series [5]: in vivo. Conditions: mouse, ip.
Series [6] deals with PfCDPK4 (Plasmodium falciparum (isolate 3D7), UniProt Q8IBS5). Briefly: biochemical.
Series [7] deals with glioma derived (SF539). Briefly: Growth inhibition of human cell line SF539.
In series [8] the test system is human lymphocyte (CRL8155). Briefly: Growth inhibition of human cell line CRL8155.
Series [9] concerns human promyelocytic leukemia (HL-60). The experiment in a line: Growth inhibition of human cell line HL-60.
Series [10] is described as follows: Solubility in buffers of various pH. Type of series: physicochemical. The following applies: buffer.
In series [11] the target is CpCDPK1 (Cryptosporidium parvum (strain Iowa II), UniProt A3FQ16). Briefly: biochemical. It counts as biochemical.
Series [12] in a line: Blood levels after oral gavage dosing of mice (LC-MS). The following applies: mouse, in vivo, po.
Series [13] concerns the target HckKD (Homo sapiens (Human), UniProt P08631). The experiment in a line: Tyrosine kinase IC50, HckKD. It counts as biochemical. The following applies: Table 9.
Series [14] has as its system C. parvum. The experiment in a line: Immunosuppressed (SCID-beige) mouse C. parvum model. It counts as in vivo, Cryptosporidium parvum. Conditions: SCID-beige mice; oral gavage once a day, days 3-7 and 10-14; 29 and 150 at 50 mg/kg/day, Paromomycin 2 g/kg/day. On the procedure:
Shown are mean of the parasite numbers detected in 25 mg of stool from each mouse, by qRT-PCR.

Setting [15] is: Table 8, read-out: IC50 (μM) CpCDPK1.

≈ marks a conversion by molar mass, not a printed value. Where two headings read alike, the source gives them in different places.

`Nc1ncnc2c1cnn2CC1CCNCC1` [Compound 99]: the IC50 in series [1] and in [2] was above 10 µM each time.

For `COc1ccc2cc(-c3nn(CC4CCNCC4)c4ncnc(N)c34)ccc2c1` [Compound 28, 3-(6-methoxynaphthalen-2-yl)-1-(piperidin-4-ylmethyl)-1H-pyrazolo[3,4-d]pyrimidin-4-amine], the IC50 in series [1] is above 20 µM; in [2], above 20 µM; in series [11] (setting [15]), 0.0023 µM; in series [13] it was above 10 µM. The results for the EC50 in series [3] and in [6] were 0.739 µM and 0.0188 µM, respectively. Also, in [4], the “Cell Toxicity HCC2998, % at 10 μM” value is recorded as below 30% at 10 μM. Besides, the AUC in series [5] was 151 µM·h; in [12] it was 20.5 µM·h. Further, the Cmax in [5] turned out to be 84.1 µM; in series [12] it was 4.41 µM. Further, the results for the Tmax in series [5] and in series [12] were 0.667 h and 2.67 h, respectively. In series [7], the “Cell Toxicity SF539, % at 10 μM” value is listed as below 30% at 10 μM. The “Cell Toxicity CRL8155, % at 10 μM” value in [8] is listed as below 30% at 10 μM. For the same compound, the “Cell Toxicity CRL8155, % at 30 μM” value in [8] is listed as below 30% at 30 μM. Also, the “Cell Toxicity HL60, % at 10 μM” value in [9] is reported as below 30% at 10 μM. Further, the “Cell Toxicity HL60, % at 30 μM” value in [9] was below 30% at 30 μM. For the same compound, the solubility in [10] (aqueous buffer, pH 2.0, read-out: Experimental Solubility pH 2.0) came out at 49 µM (≈ 19 µg/mL); in [10] (pH 6.5, aqueous buffer, read-out: Experimental Solubility pH 6.5), 58 µM (≈ 22.5 µg/mL); in [10] (pH 7.4, aqueous buffer, read-out: Experimental Solubility pH 7.4), 56 µM (≈ 21.8 µg/mL).

Regarding `CC(C)(C)n1ncc2c(N)ncnc21` [Compound 123], the IC50 in [1] and in series [2] was above 10 µM each time.

Consider `CC(C)(C)n1nc(Cc2cccc3ccccc23)c2c(N)ncnc21` [Compound 5d, 1-tert-butyl-3-(naphthalen-1-ylmethyl)-1H-pyrazolo[3,4-d]pyrimidin-4-amine], for which the “Cell Toxicity HCC2998, % at 10 μM” value in series [4] is below 30% at 10 μM. Besides, the GI50 in [4] (read-out: GI50 (μM) HCC2998, human cell line HCC2998) is above 10 µM; in series [7] (read-out: GI50 (μM) SF539, human cell line SF539), above 10 µM; in [8] (read-out: GI50 (μM) CRL8155, human cell line CRL8155), above 10 µM; in series [9] (read-out: GI50 (μM) HL60, human cell line HL60), above 10 µM. In addition, the IC50 in series [2] was 7.7 µM; in series [11] (setting [15]) it was 0.144 µM; in series [11] (read-out: CpCDPK1 IC50), 0.14 µM. Besides, the “Cell Toxicity SF539, % at 10 μM” value in series [7] was below 30% at 10 μM. Also, in series [8], the “Cell Toxicity CRL8155, % at 10 μM” value is on record as below 30% at 10 μM. Further, the “Cell Toxicity HL60, % at 10 μM” value in [9] is given as below 30% at 10 μM.

Compound `Nc1ncnc2c1c(-c1cnc3ccccc3c1)nn2CC1CCNCC1` [Compound 30, 1-(piperidin-4-ylmethyl)-3-(quinolin-3-yl)-1H-pyrazolo[3,4-d]pyrimidin-4-amine] had an IC50 in series [1] above 20 µM. Also, the “Cell Toxicity HCC2998, % at 10 μM” value in [4] is listed as below 30% at 10 μM. Moreover, the IC50 in [2] is above 20 µM. Moreover, the “Cell Toxicity SF539, % at 10 μM” value in series [7] is below 30% at 10 μM. For the same compound, in [8], the “Cell Toxicity CRL8155, % at 10 μM” value is below 30% at 10 μM and the “Cell Toxicity CRL8155, % at 30 μM” value is below 30% at 30 μM. In series [9], the “Cell Toxicity HL60, % at 10 μM” value was below 30% at 10 μM and the “Cell Toxicity HL60, % at 30 μM” value was below 30% at 30 μM. Moreover, the IC50 in [11] (setting [15]) came out at 0.0837 µM.

Regarding `NC[C@@H]1O[C@H](O[C@H]2[C@@H](O)[C@H](O[C@@H]3[C@@H](O)[C@H](N)C[C@H](N)[C@H]3O[C@H]3O[C@H](CO)[C@@H](O)[C@H](O)[C@H]3N)O[C@@H]2CO)[C@H](N)[C@@H](O)[C@@H]1O` [Paromomycin, reference compound], in series [14], the “parasite burden rebound after treatment” value is listed as “quickly rebounded” and the “parasites in stool (qRT-PCR) at the end of treatment” value was “not detected”.
